Experimental findings from patent US20260028354A1, “TETRAHYDRONAPHTHALENE DERIVATIVES AS ESTROGEN RECEPTOR DEGRADERS” (REGENT OF THE UNIVERSITY OF MICHIGAN, priority 2022, published 2026) are described below.

Like-named read-outs stand apart in the source and are kept apart here. A value given as a limit tells only on which side of the number the result lay.

Assay [1] can be described thus: Western blot analysis for "B" compounds. As to conditions: read-out: Traditional Western Degradation Potency (DC50). The format is cell-based. In a few lines: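 Compound-treated cells lysed in RIPA buffer with protease inhibitors; equal protein (BCA) run on 10% SDS-PAGE, transferred to PVDF and probed with target antibodies. Band intensities quantified by densitometry and normalized to GAPDH.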
On the technique in general: A western blot detects proteins with antibodies after separation by electrophoresis.

A short description of assay [2]: Cell growth assay (WST-8) for "B" compounds. The format is cell-based. As to conditions: read-out: Cell growth Inhibition in T47D cell line IC50. The protocol:
Cell Growth Assay. The cells were seeded at 1500/well in 96 well plates overnight. One day after the seeding, they were treated with indicated doses of compounds respectively, 4 days after the compound treatment, 10% WST-8 reagent was added to the culture medium and incubate in a CO2 incubator at 37° C. for 2.5 hours. Before reading, the plate was mixed gently on an orbital shaker for one minute to ensure homogeneous distribution of color. The absorbance was measured of each sample using a microplate reader at a wavelength of 450 nm. The relative absorbance was calculated against the vehicle control from three individually repeats.
(Formazan colour is commonly taken as a measure of viable cells.)

The DC50 is the concentration at which degradation of the target reaches its halfway point. Broadly, the IC50 is the concentration at which inhibition is half-maximal. For `O=C1CCC(N2C(=O)c3cc4c(cc3C2=O)CN(CC(=O)N2CCC3(CC2)CCN(c2ccc([C@@H]5c6ccc(O)cc6CC[C@@H]5C5CCC(F)(F)CC5)cc2)CC3)C4)C(=O)N1` (mixture of isomers) [Compound B48, 6-(2-(9-(4-((1R,2R)-2-(4,4-difluorocyclohexyl)-6-hydroxy-1,2,3,4-tetrahydronaphthalen-1-yl)phenyl)-3,9-diazaspiro[5.5]undecan-3-yl)-2-oxoethyl)-2-(2,6-dioxopiperidin-3-yl)-6,7-dihydropyrrolo[3,4-f]isoindole-1,3(2H,5H)-dione], the DC50 in assay [1] lay within 10 to 100 nM. Also, the IC50 in assay [2] (T47D, T47D cell line) lay in the range of 1 to 10 nM.

With `O=C1CCC(N2C(=O)c3cc4c(cc3C2=O)CN(CC(=O)N2CCC3(CC2)CCN(c2ccc([C@H]5c6ccc7[nH]ncc7c6CC[C@H]5c5ccccc5)cc2)CC3)C4)C(=O)N1` (stereo partly drawn) [Compound B138, 2-(2,6-dioxopiperidin-3-yl)-6-(2-oxo-2-(9-(4-((6S,7R)-7-phenyl-6,7,8,9-tetrahydro-3H-benzo[e]indazol-6-yl)phenyl)-3,9-diazaspiro[5.5]undecan-3-yl)ethyl)-6,7-dihydropyrrolo[3,4-f]isoindole-1,3(2H,5H)-dione], in assay [1], the DC50 is greater than 100 nM. Further, the concentration for half-maximal inhibition (IC50) in assay [2] (T47D, T47D cell line) was in the range of 1 to 10 nM.

With `O=C1CCC(N2C(=O)c3cc4c(cc3C2=O)CN(CC(=O)N2CCC3(CC2)CCN(c2ccc([C@@H]5c6ccc(B(O)O)cc6CC[C@@H]5c5ccccc5)cc2)CC3)C4)C(=O)N1` (mixture of isomers) [Compound B50, ((5R,6S)-5-(4-(9-(2-(6-(2,6-dioxopiperidin-3-yl)-5,7-dioxo-3,5,6,7-tetrahydropyrrolo[3,4-f]isoindol-2(1H)-yl)acetyl)-3,9-diazaspiro[5.5]undecan-3-yl)phenyl)-6-phenyl-5,6,7,8-tetrahydronaphthalen-2-yl)boronic acid], the DC50 in assay [1] is 10 to 100 nM. For the same compound, the IC50 in assay [2] (T47D, T47D cell line) was greater than 10 nM.

On to `O=C1CCC(N2C(=O)c3cc4c(cc3C2=O)CN(CC(=O)N2CCC3(CC2)CCN(c2ccc([C@@H]5c6ccc(O)cc6CC[C@@H]5c5ccccc5)cc2)CC3)C4)C(=O)N1` (stereo partly drawn) [Compound B133, 2-(2,6-dioxopiperidin-3-yl)-6-(2-(9-(4-((1R,2S)-6-hydroxy-2-phenyl-1,2,3,4-tetrahydronaphthalen-1-yl)phenyl)-3,9-diazaspiro[5.5]undecan-3-yl)-2-oxoethyl)-6,7-dihydropyrrolo[3,4-f]isoindole-1,3(2H,5H)-dione], for which the DC50 in assay [1] lay within 10 to 100 nM. For the same compound, in assay [2] (T47D cell line), the IC50 was 1 to 10 nM.

Take `O=C1CCC(N2C(=O)c3cc4c(cc3C2=O)CN(CC(=O)N2CC3(CCN(c5ccc([C@@H]6c7ccc(O)cc7CC[C@@H]6c6ccccc6)c(F)c5)CC3)C2)C4)C(=O)N1` (mixture of isomers) [Compound B44, 2-(2,6-dioxopiperidin-3-yl)-6-(2-(7-(3-fluoro-4-((1S,2S)-6-hydroxy-2-phenyl-1,2,3,4-tetrahydronaphthalen-1-yl)phenyl)-2,7-diazaspiro[3.5]nonan-2-yl)-2-oxoethyl)-6,7-dihydropyrrolo[3,4-f]isoindole-1,3(2H,5H)-dione]: in assay [1], the DC50 lay within 10 to 100 nM. For the same compound, the IC50 in assay [2] (T47D, T47D cell line) was greater than 10 nM.

In the case of `O=C1CCC(N2C(=O)c3cc4c(cc3C2=O)CN(CC(=O)N2CCC3(CC2)CCN(c2ccc([C@@H]5c6ccc(O)cc6CC[C@@H]5c5ccccc5)cc2)CC3)C4)C(=O)N1` (mixture of isomers) [Compound B12, 2-(2,6-dioxopiperidin-3-yl)-6-(2-(9-(4-((1R,2S)-6-hydroxy-2-phenyl-1,2,3,4-tetrahydronaphthalen-1-yl)phenyl)-3,9-diazaspiro[5.5]undecan-3-yl)-2-oxoethyl)-6,7-dihydropyrrolo[3,4-f]isoindole-1,3(2H,5H)-dione], the DC50 in assay [1] fell in the range of 10 to 100 nM. Besides, in assay [2] (T47D cell line), the IC50 was greater than 10 nM.

In the case of `O=C1CCC(N2C(=O)c3cc4c(cc3C2=O)CN(CC(=O)N2CCC3(CC2)CCN(c2c(F)cc([C@@H]5c6ccc(O)cc6CC[C@@H]5c5ccccc5)cc2F)CC3)C4)C(=O)N1` (mixture of isomers) [Compound B45, 6-(2-(9-(2,6-difluoro-4-((1R,2S)-6-hydroxy-2-phenyl-1,2,3,4-tetrahydronaphthalen-1-yl)phenyl)-3,9-diazaspiro[5.5]undecan-3-yl)-2-oxoethyl)-2-(2,6-dioxopiperidin-3-yl)-6,7-dihydropyrrolo[3,4-f]isoindole-1,3(2H,5H)-dione], the DC50 in assay [1] was greater than 100 nM. Further, the IC50 in assay [2] (T47D, T47D cell line) is greater than 10 nM.

For the compound `O=C1CCC(N2C(=O)c3cc4c(cc3C2=O)CN(CC(=O)N2CC3(CCN(c5ccc([C@@H]6c7ccc(O)cc7CC[C@@H]6c6ccccc6)cc5)CC3)C2)C4)C(=O)N1` (stereo partly drawn) [Compound B28, 2-(2,6-dioxopiperidin-3-yl)-6-(2-(7-(4-((1R,2S)-6-hydroxy-2-phenyl-1,2,3,4-tetrahydronaphthalen-1-yl)phenyl)-2,7-diazaspiro[3.5]nonan-2-yl)-2-oxoethyl)-6,7-dihydropyrrolo[3,4-f]isoindole-1,3(2H,5H)-dione], in assay [1], the DC50 is less than 10 nM. Further, the IC50 in assay [2] (T47D cell line) is 1 to 10 nM.

In the case of `O=C1CCC(N2Cc3c(ccc4c3OC[C@@H]3CN(C(=O)CN5CCN(c6ccc([C@@H]7c8ccc(O)cc8CC[C@@H]7c7ccccc7)cc6)CC5)CCN43)C2=O)C(=O)N1` (stereo partly drawn) [Compound B244, 3-((S)-7-(2-(4-(4-((1R,2S)-6-hydroxy-2-phenyl-1,2,3,4-tetrahydronaphthalen-1-yl)phenyl)piperazin-1-yl)acetyl)-1-oxo-1,3,5,5a,6,7,8,9-octahydro-2H-pyrazino[1′,2′:4,5][1,4]oxazino[2,3-e]isoindol-2-yl)piperidine-2,6-dione], the IC50 in assay [2] (T47D) was less than 1 nM.

For the compound `O=C1CC[C@H](N2Cc3c(ccc4c3OC[C@H]3CN(CC5CC6(C5)CN(c5ccc([C@@H]7c8ccc(O)cc8CC[C@@H]7c7ccccc7)cc5)C6)CCN43)C2=O)C(=O)N1` [Compound B351, (S)-3-((R)-7-((2-(4-((1R,2S)-6-hydroxy-2-phenyl-1,2,3,4-tetrahydronaphthalen-1-yl)phenyl)-2-azaspiro[3.3]heptan-6-yl)methyl)-1-oxo-1,3,5,5a,6,7,8,9-octahydro-2H-pyrazino[1′,2′:4,5][1,4]oxazino[2,3-e]isoindol-2-yl)piperidine-2,6-dione], the IC50 in assay [2] (T47D) was 1 to 10 nM.

As to `O=C1CC[C@H](N2Cc3cc4c(cc3C2=O)OCC2(CN(CC3CCN(c5ccc([C@@H]6c7ccc(O)cc7CC[C@@H]6c6ccccc6)cc5)CC3)C2)O4)C(=O)N1` [Compound B395, (S)-3-(1-((1-(4-((1R,2S)-6-hydroxy-2-phenyl-1,2,3,4-tetrahydronaphthalen-1-yl)phenyl)piperidin-4-yl)methyl)-6′-oxo-6′,8′-dihydro-3′H,7′H-spiro[azetidine-3,2′-[1,4]dioxino[2,3-f]isoindol]-7′-yl)piperidine-2,6-dione], the IC50 in assay [2] (T47D, T47D cell line) lay within 1 to 10 nM.

Consider `O=C1CC[C@H](N2Cc3c(ccc4c3OC[C@H]3CN(C[C@H]5COC6(CCN(c7ccc([C@@H]8c9ccc(O)cc9CC[C@@H]8c8ccccc8)cc7)CC6)C5)CCN43)C2=O)C(=O)N1` [Compound B397, (S)-3-((R)-7-(((S)-8-(4-((1R,2S)-6-hydroxy-2-phenyl-1,2,3,4-tetrahydronaphthalen-1-yl)phenyl)-1-oxa-8-azaspiro[4.5]decan-3-yl)methyl)-1-oxo-1,3,5,5a,6,7,8,9-octahydro-2H-pyrazino[1′,2′:4,5][1,4]oxazino[2,3-e]isoindol-2-yl)piperidine-2,6-dione], for which the IC50 in assay [2] (T47D) is less than 1 nM.

On to `O=C1CCC(N2Cc3c(ccc4c3OC[C@H]3CN(C(=O)CN5CCN(c6ccc([C@@H]7c8ccc(O)cc8CC[C@@H]7c7ccccc7)cc6)CC5)CCN43)C2=O)C(=O)N1` (stereo partly drawn) [Compound B249, 3-((R)-7-(2-(4-(4-((1R,2S)-6-hydroxy-2-phenyl-1,2,3,4-tetrahydronaphthalen-1-yl)phenyl)piperazin-1-yl)acetyl)-1-oxo-1,3,5,5a,6,7,8,9-octahydro-2H-pyrazino[1′,2′:4,5][1,4]oxazino[2,3-e]isoindol-2-yl)piperidine-2,6-dione], for which the IC50 in assay [2] (T47D) is less than 1 nM.

In the case of `O=C1CC[C@H](N2Cc3c(ccc4c3OC[C@H]3CN(C[C@@H]5COC6(CCN(c7ccc([C@@H]8c9ccc(O)cc9CC[C@@H]8c8ccccc8)cc7)CC6)C5)CCN43)C2=O)C(=O)N1` [Compound B396, (S)-3-((R)-7-(((R)-8-(4-((1R,2S)-6-hydroxy-2-phenyl-1,2,3,4-tetrahydronaphthalen-1-yl)phenyl)-1-oxa-8-azaspiro[4.5]decan-3-yl)methyl)-1-oxo-1,3,5,5a,6,7,8,9-octahydro-2H-pyrazino[1′,2′:4,5][1,4]oxazino[2,3-e]isoindol-2-yl)piperidine-2,6-dione], the concentration for half-maximal inhibition (IC50) in assay [2] (T47D) was less than 1 nM.

With `O=C1CC[C@H](N2Cc3c(ccc4c3OC[C@H]3CN(CC5COC6(CCN(c7ccc([C@@H]8c9ccc(O)cc9CC[C@@H]8c8ccccc8)cc7)CC6)C5)CCN43)C2=O)C(=O)N1` (stereo partly drawn) [Compound B226, (3S)-3-((5aR)-7-((8-(4-((1R,2S)-6-hydroxy-2-phenyl-1,2,3,4-tetrahydronaphthalen-1-yl)phenyl)-1-oxa-8-azaspiro[4.5]decan-3-yl)methyl)-1-oxo-1,3,5,5a,6,7,8,9-octahydro-2H-pyrazino[1′,2′: 4,5][1,4]oxazino[2,3-e]isoindol-2-yl)piperidine-2,6-dione], in assay [2] (T47D), the IC50 was less than 1 nM.
